Laboratory results from patent US6340692B1, “Injectable anesthetic” (priority 1999, dated 2002).

Columns and labels:
[1] = Conduction anesthesia, some models (general statements); type: in vivo
sciatic nerve = assay: Sciatic nerve conduction anesthesia, Camaugis-Tekman method; type: in vivo, rats; settings: for duration of the anesthesia: 0.2 mL
Protocol: A study of sciatic nerve conduction anesthesia in rats was conducted in accordance with the Camaugis-Tekman method. Prior to injection of the anesthesia, the rat motor activity was evaluated by applying a compression to the animal's feet. Then, a 0.2 mL volume of chinoxicaine solution was injected into the sciatic nerve area of the pronated lower extremity. With the application of a subsequent compression to the its feet, the animal's reaction was evaluated by observing if the animal pulled apart its toes in a ‘fan-shaped’ manner when suspended by its tail. It was determined that both 1.0% and 2.0% concentrations of chinoxicaine solutions produced fast, deep, and prolonged anesthesia. The anesthesia reached fill extent within 2.0±0.3 minutes, with either concentration.

male chinchilla rabbits = assay: Epidural anesthesia in rabbits; type: in vivo; settings: for effective duration of epidural anesthesia: chinoxicaine 2.0% solution, Lidocaine as comparison
Protocol: A study of epidural anesthesia was conducted on male chinchilla rabbits. The epidural puncture was made in the area of the third and fourth lumbar vertebrae by means of a Tuohi-Peridur needle. A 2.0% solution of chinoxicaine was injected into the epidural area in a volume determined in accordance with the following formula: [formula]

white non-breeding rats = assay: Conduction anesthesia, injection under the tail skin; type: in vivo; settings: 1.0 mL under the tail skin
Protocol: A study of conduction anesthesia was carried out on white non-breeding rats weighing 180 to 220 grams. The anesthetic solution was injected under the tail skin on four sides in a 1.0 mL volume at concentrations ranging from 0.1% to 1.0%. Duration of the anesthetic solution was 120.3±7.1 minutes for the 0.1% concentration, 300.5±15.5 minutes for a 0.25% concentration, 306.0±16.2 minutes for a 0.5% concentration, and 320.0±13.1 minutes for the 1.0% concentration.

male guinea pigs = assay: Infiltration anesthesia, Beulbring-Wade method; type: in vivo
Protocol: The pharmacological activity of chinoxicaine has been evaluated using the characteristics of: i) strength of anesthesia, ii) latent period, and iii) duration of anesthesia. A study of infiltration anesthesia was conducted according to the Beulbring-Wade method on male guinea pigs. The median effective concentration (EC50) was 0.1%. Latent period was about 1.5 minutes. The duration of deep anesthesia was: i) 25 minutes for the 0.1% solution, ii) 140.5 minutes for a 0.25% solution, iii) 310.8 minutes for a 0.5% solution, and iv) 313.8 minutes for a 1.0% solution. On the basis of specific pharmacological activity data, described in greater detail below, chinoxicaine is preferably provided as either a 0.25% or 0.5% solution in 250 mL bottles for use in infiltration anesthesia, and as a 1.0% or 2.0% solution in 5 mL ampoules for conduction and epidural anesthesia. In alternative embodiments, the anesthesia solution includes a 0.9% solution of sodium chloride.

[2] = infiltration anesthesia, male guinea pigs

SMILES: CCCn1c(=O)c(C(=O)NCCN(CC)CC)c(O)c2ccccc21.Cl [chinoxicaine, hydrochloride diethylaminoethylamide 1-propyl-2 oxy-4-hydroxyquinolin-3-carbonic acid]
- effective duration relative to Trimecaine or Lidocaine ([1]; 0.5% solution, conduction applications): as much as twice
- increase in activity over Trimecaine ([1]; conduction anesthesia): comparable increase
- duration of the anesthesia (sciatic nerve; 1.0% concentration): 138.0 ± 8.9 min
- duration of the anesthesia (sciatic nerve; 2.0% concentration): 205.0 ± 12.6 min
- time until anesthesia reached full extent (sciatic nerve; either 1.0% or 2.0% concentration, 0.2 mL into sciatic nerve area): ≤ 2.0 ± 0.3 min
- time from injection to deep and prolonged anesthesia (male chinchilla rabbits; 2.0% solution, epidural): ≤ 5.0 min
- effective duration of epidural anesthesia (male chinchilla rabbits; epidural): at least 200 minutes
- increase in activity as compared to Lidocaine (male chinchilla rabbits; epidural anesthesia): two-fold increase
- duration of long and deep epidural and peridermal anesthesia (male chinchilla rabbits; rabbits): about 270 minutes
- Duration of conduction anesthesia (white non-breeding rats; 0.1% concentration): 120.3 ± 7.1 min
- Duration of conduction anesthesia (white non-breeding rats; 0.25% concentration): 300.5 ± 15.5 min
- Duration of conduction anesthesia (white non-breeding rats; 0.5% concentration): 306.0 ± 16.2 min
- Duration of conduction anesthesia (white non-breeding rats; 1.0% concentration): 320.0 ± 13.1 min
- duration of deep anesthesia (male guinea pigs; 0.1% solution): 25 min
- duration of deep anesthesia (male guinea pigs; 0.25% solution): 140.5 min
- duration of deep anesthesia (male guinea pigs; 0.5% solution): 310.8 min
- effectiveness relative to Lidocaine or Azacaine (male guinea pigs; 0.5% solution, long infiltration applications): ≤ 2.5 times
- duration of deep anesthesia (male guinea pigs; 1.0% solution): 313.8 min
- increase in activity as compared to Lidocaine (male guinea pigs; infiltration anesthesia): two-fold increase
- increase in activity over Trimecaine (male guinea pigs; infiltration anesthesia): comparable increase
- Latent period (male guinea pigs; [2]): about 1.5 minutes
- median effective concentration (EC50) (male guinea pigs; [2]): 0.1%

SMILES: CCN(CC)CC(=O)Nc1c(C)cccc1C [Lidocaine, reference compound]
- effective duration of epidural anesthesia (male chinchilla rabbits; epidural): about 100 minutes
